From US8841290B2, “Substituted tetrahydronaphthalenes, method for the production thereof, and use thereof as drugs” (Sanofi, priority 2009, dated 2014)
≈ marks a conversion by molar mass, not a printed value.

Legend:
human MCH receptor = biological target: T1, human MCH receptor (Homo sapiens, UniProt Q99705); test: calcium mobilization assay (FLIPR), functional IC50 of MCH1R antagonists; format: cell-based; settings: recombinant HEK293 cell line expressing the human MCH receptor; calcium flux after addition of agonist (MCH); read-out: IC50
T1 construct: expressed in transfected cells
Excerpt: A difference from the reference was, however, the use of the plasmid pEAK8 from EDGE Biosystems (USA) for the construction of the expression vector. The host used for the transfection was a transformed HEK cell line named “PEAK Stable Cells” (likewise from EDGE Biosystems). Functional measurements of the cellular calcium flux after addition of agonist (MCH) in the presence of ligand of the invention took place with the aid of the FLIPR apparatus from Molecular Devices (USA), using protocols of the apparatus manufacturer.

[1] = nephelometric (kinetic) solubility determination, phosphate buffer pH 7.4; format: physicochemical; settings: for solubility kinetic: aqueous buffer, kinetic from dmso stock, nephelometric, Table 7
Method: A DMSO solution of the test compound (2.5 mM; 0.5 μl) is pipetted into 200 μl of an aqueous test solution (e.g. phosphate-buffered saline, 10×, 1M, Sigma, adjusted to 10 mM, pH 7.4) in a 96-well microtiter plate, and the turbidity is measured at the resulting theoretical concentration for the test compound of 6.25 μM using a nephelometer (e.g. Nephelostar Galaxy, BMG Labtech). The concentration of the test compound in the aqueous test solution is then raised to a theoretical 12.5 μM by adding further DMSO solution (2.5 mM; 0.5 μl), and the turbidity measurement is repeated. Further additions of DMSO solutions (1 μl, 2.5 mM; 0.5 μl, 10 mM; then 9×1 μl, 10 mM resulting in theoretical concentrations of 25 μM, 50 μM, 100 μM, 150 μM, 200 μM, 250 μM, 300 μM, 350 μM, 400 μM, 450 μM and 500 μM) with turbidity measurement in between complete the measurement process.
Evaluation: The turbidity values from the nephelometer are plotted against the theoretical concentration of the test compound in the aqueous test solution. As soon as a significant turbidity is detected (e.g. 5 times above the control value of the aqueous test solution) at a theoretical concentration, the level of concentration below this is stated to be the solubility limit of the test compound in the test solution. Thus, the maximum possible measurement range emerges as values<6.25 μM, 6.25-500 μM and >500 μM.

T1 sequence (Q99705 whole entry): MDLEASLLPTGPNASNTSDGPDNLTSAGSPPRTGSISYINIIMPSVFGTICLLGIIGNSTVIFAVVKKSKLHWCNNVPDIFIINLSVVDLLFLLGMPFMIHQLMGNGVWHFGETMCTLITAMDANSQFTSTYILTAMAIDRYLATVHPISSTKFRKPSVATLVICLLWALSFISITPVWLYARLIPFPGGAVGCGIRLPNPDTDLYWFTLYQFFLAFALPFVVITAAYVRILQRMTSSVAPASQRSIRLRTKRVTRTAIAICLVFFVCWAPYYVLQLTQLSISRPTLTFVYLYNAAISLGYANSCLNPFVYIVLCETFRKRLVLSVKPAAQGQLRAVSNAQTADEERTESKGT

IC50 (human MCH receptor) [nM] | solubility kinetic [1] [µg/mL] | pH 7.4 (solubility) ([1]; nephelometry, Table 8, reference compounds versus inventive examples) [mg/ml] | Structure (SMILES)
1360 | > 309 |  | CN(C(=O)c1ccc(NC(=O)C(F)(F)F)cc1)[C@H]1CCc2cc(CNCC3CCOCC3)ccc2C1 [Example 2-02]
127 | 13 (≈ 32 µM) | 0.013 | CCCCOc1ccc(C(=O)N[C@H]2CCc3cc(CN4CCCC4)ccc3C2)cc1 [Example 6-01]
190 | > 281 |  | CCC1(CNCc2ccc3c(c2)CC[C@H](N(C)C(=O)c2ccc(OCC4CC4)cn2)C3)CC1 [Example 7-31]
121 | 153 (≈ 331 µM) |  | CN(C(=O)c1ccc(OCC2CC2)cc1)[C@H]1CCc2cc(CNCC3CCOCC3)ccc2C1 [Example 1-01, 4-Cyclopropylmethoxy-N-methyl-N—((S)-6-{[(tetrahydropyran-4-ylmethyl)amino]methyl}-1,2,3,4-tetrahydronaphthalen-2-yl)benzamide]
125 | > 281 |  | CN(C(=O)c1ccc(OCC2CC2)cc1)[C@H]1CCc2cc(CNCC3(C)COC3)ccc2C1 [Example 1-05]
215 | > 281 |  | CC1CCN(Cc2ccc3c(c2)CC[C@H](N(C)C(=O)c2ccc(OCC4CC4)cn2)C3)CC1 [Example 7-29]
259 | 137 (≈ 315 µM) |  | CC(C)CCNCc1ccc2c(c1)CC[C@H](N(C)C(=O)c1ccc(OCC3CC3)cc1)C2 [Example 7-16]
141 | > 302 |  | CN(C(=O)c1ccc(OCC2CC2)cc1)[C@H]1CCc2cc(CN3CCC(C(C)(C)O)CC3)ccc2C1 [Example 7-04]
563 | > 282 |  | CCC(COC)NCc1ccc2c(c1)CC[C@H](N(C)C(=O)c1ccc(OCC3CC3)cc1)C2 (some centres unmarked) [Example 7-19]
134 | > 273 |  | C[C@H]1CC[C@H](c2ccc3c(c2)CC[C@H](N(C)C(=O)c2ccc(OCC4CC4)cc2)C3)N1C [Example 5-04]
180 | > 289 |  | CN(C(=O)c1ccc(OCC2CC2)cn1)[C@H]1CCc2cc(CNCC3CCOCC3)ccc2C1 [Example 3, 5-Cyclopropylmethoxypyridine-2-carboxylic acid methyl-((S)-6-{[(tetrahydropyran-4-ylmethyl)amino]methyl}-1,2,3,4-tetrahydronaphthalen-2-yl)amide]
284 | > 295 |  | CN(Cc1ccc2c(c1)CC[C@H](N(C)C(=O)c1ccc(OCC3CC3)cc1)C2)CC1CCOCC1 [Example 1-13]
172 | > 288 |  | CN(C(=O)c1ccc(OCC2CC2)cc1)[C@H]1CCc2cc(CNCC3(C)CCCO3)ccc2C1 (some centres unmarked) [Example 1-11]
508 | > 281 |  | CN(C(=O)c1ccc(OCC2CC2)cc1)[C@H]1CCc2cc(CN3CCC(O)CC3)ccc2C1 [Example 7-06]
148 | > 288 |  | COCC1(CNCc2ccc3c(c2)CC[C@H](N(C)C(=O)c2ccc(OCC4CC4)cc2)C3)CC1 [Example 7-22]
336 | > 280 |  | CN(C(=O)c1ccc(OCC2CC2)cc1)[C@H]1CCc2cc(CNC3CCCCC3)ccc2C1 [Example 7-07]
248 | 15 (≈ 31.5 µM) |  | CC1CCN(c2ccc(C(=O)N[C@H]3CCc4cc(CNCC5CCOCC5)ccc4C3)cc2)CC1 [Example 2-05]
137 | > 266 |  | CN1CCC[C@@H]1c1ccc2c(c1)CC[C@H](N(C)C(=O)c1ccc(OCC3CC3)cc1)C2 [Example 5-01]
228 | 10 (≈ 23.9 µM) |  | C[C@H]1CC[C@H](c2ccc3c(c2)CC[C@H](N(C)C(=O)c2ccc(OCC4CC4)cc2)C3)N1 [Example 4-02, 4-Cyclopropylmethoxy-N-methyl-N—[(S)-6-((2R,5S)-5-methylpyrrolidin-2-yl)-1,2,3,4-tetrahydronaphthalen-2-yl]benzamide]
1100 | > 287 |  | CN(C(=O)c1ccc(OCC2CC2)cn1)[C@H]1CCc2cc(CN3CC4CCC3CC4)ccc2C1 [Example 7-33]
